As a reminder, the MIC is the smallest concentration in the dilution series that meets the test's criterion for growth inhibition.

Series [1] concerns hla promoter. Kind of series: Paper disc diffusion and lux assay (hla promoter lux reporter). It counts as cell-based, S. aureus. Here is the method:
A single colony of bioluminescent S. aureus carrying the hla-promoter lux reporting system was resuspended in 200 μl of sterile water, diluted 1000-fold into 0.7% (w/v) BHI agar and overlaid onto BHI agar plates. 10 μl of the 50 mM analogues compounds dissolved in DMSO were impregnated to paper disc and placed on the lawn of bacteria. The plates were incubated overnight at 37° C. The luminescence was detected with Xenogen IVIS 100 in vivo imaging system (Xenogen, Alameda, Calif.).
On the technique in general: Agar diffusion results depend on both activity and mobility in agar.

The test system of series [2] is S. aureus Mu3. Kind of series: Secondary screening of compound 13 analogues in combination with gentamicin (growth by OD 595 nm). Particulars: for activity at 5 µM / activity at 20 µM / activity at 50 µM / inhibition at 20 µM / inhibition at 50 µM: Staphylococcus aureus; for activity at 5 µM / activity at 20 µM / activity at 50 µM: MU3, 16 h, read-out: relative growth; for inhibition at 20 µM: MU3, read-out: 20 μM + 200 μg/ml Gentamicin Growth inhibition Percentage; for inhibition at 50 µM: MU3, read-out: 50 μM + 200 μg/ml Gentamicin Growth inhibition Percentage; for relative growth: relative to DMSO = 1.
Description: All screening is done in 384-well polystyrene microtiter plates (Greiner Bio-One). Overnight culture of Mu3 is washed with BHI medium 3 times, diluted and plated to give 5×10^5 CFU/mL per well. The plates are incubated at 37° C. for 16 hours and growth is monitored by optical density reading at 595 nm using an automated DTX 880 multimode detector. Screening using BHI medium is designated as the background screen. […] Sub MIC concentration of antibiotics is selected for screening. BHI containing a final concentration for gentamicin 156.25 μg/mL is used correspondingly for individual experiments. […] Screening results with various antibiotics is normalized with the background screening to calculate the percentage of growth inhibition.
Identical experimental procedures are performed as primary screening procedures, except different concentrations of selected compound are tested.
Secondary like screening was performed with different concentrations of each analogue compounds were tested with different gentamicin concentration, 50 μM, 20 μM and 5 μM compound concentration were used against, BHI containing, 0 μg/ml, 100 μg/ml and 200 μg/ml gentamicin.

Series [3] has as its system S. aureus Mu3. Kind of series: BALB/c mice infection model, organ bacterial load. Particulars: 3 days after infection.
Excerpt: (§1) 6-8 weeks old female BALB/c mice were infected with 4×10^8 CFU of S. aureus. […] 3 days after infection, the animals were euthanized; kidneys, livers and spleens were homogenized in PBS, and plated on BHI agar for quantitative bacterial culture.
Series [4] concerns Vero cells. Kind of series: Cytotoxicity assay (MTT). It counts as cell-based. Particulars: for Cytotoxicity: MTT assays in Vero cells. The protocol: MTT assays are performed for selected compounds on Vero cells according to product instructions.
For orientation: Tetrazolium dyes change colour on reduction, which living cells bring about.

Series [5] has as its system hla promoter. Kind of series: Paper disc diffusion and lux assay (hla promoter lux reporter). It counts as cell-based, S. aureus. To be noted: each compound used at 25 μM.
In series [6] the test system is S. aureus. Kind of series: MIC of compound 3 and analogues (Table 7, strain not given).
The test system of series [7] is S. aureus USA300. Kind of series: BALB/c mice infection model, organ bacterial load. Particulars: 3 days after infection.
Excerpt: as §1
The subject of series [8] is S. aureus Mu3 strain. Kind of series: Microdilution checkerboard assay of compound with aminoglycosides. To be noted: for Combinatory effect with gentamicin: checkerboard. (Dilution methods test growth across graded concentrations, often in twofold steps.)
Description: The Checkerboard assay is performed in 96-well microtitre plates. […] The antibiotics are 2 fold serially diluted along the ordinate, the compounds are added along the abscissa to generate the checkerboard concentration gradients between the compounds and the antibiotics. Bacterial culture are topped and incubated overnight. Bacterial growth is monitored by the OD absorbance at 595 nm.
The concentration tested range was from 500M to 0.98 μM. MICs higher than 500M were not determined.
Series [9] relates to MRSA Mu3. Kind of series: Minimal inhibitory concentration (MIC) test, broth micro-dilution. In kind it is cell-based, Staphylococcus aureus. Particulars: microbroth dilution. Here is the method:
Preliminary testing of the MIC value of three antibiotics (Gentamicin, Ceftriaxone, and Levofloxacin) against MRSA Mu3 was performed according to microbroth dilution methods. This was to establish the reference for the appropriate amount of antibiotics to be used for HTS for hit identification of compounds that could have synergistic activities or potentiate the antibiotic's antimicrobial effect. The MIC value of Gentamicin against MRSA Mu3 was determined to be 1000 μg/mL.

Entries after “also recorded” stand apart in the source; their conditions may differ. Where two headings read alike, the source gives them in different places.

`O=C(O)CN1C(=O)/C(=C/c2ccc(OCc3ccccc3)cc2)SC1=S` [Compound 3]: in [1], the “repression in hla promoter lux reporter assay” value (shortened to “repression”) is given as “significant repression”. The activity at 5 µM in [2] is 118%. Also, in series [2], the activity at 20 µM stood at 109%. The activity at 50 µM in series [2] was 88%. The inhibition at 20 µM in [2] was found to be 60%. The inhibition at 50 µM in series [2] amounted to 92%. Besides, the relative growth in [2] ([Cpd] 5 μM, [Genta] 100 ug/ml) is on record as 1.12; in [2] ([Cpd] 5 μM, [Genta] 200 ug/ml), 1.18; in [2] ([Cpd] 20 μM, [Genta] 100 ug/ml) it was 0.94; in series [2] ([Cpd] 20 μM, [Genta] 200 ug/ml), 0.4; in [2] ([Cpd] 50 μM, [Genta] 100 ug/ml) it was “*0.09”; in series [2] ([Cpd] 50 μM, [Genta] 200 ug/ml) it was “*0.08”. The kidney bacterial load result in series [3] is given as “reduction; also recorded: reduce kidney bacterial load”. For the same compound, the liver bacterial load entry in series [3] and in [7] was “reduction; also recorded: reduce liver bacterial load” throughout. The spleen bacterial load result in series [3] and in series [7] was “reduction; also recorded: reduce spleen bacterial load” throughout. In series [4], the Cytotoxicity entry is on record as “Low”. Moreover, in [5], the Relative lux signal was found to be 0.00439. In series [6] (Staphylococcus aureus), the MIC came out at 500 µM.

`O=C(O)CN1C(=O)/C(=C/c2cccc(OCc3ccc(Cl)cc3Cl)c2)SC1=S` [Compound 17]: in series [8], the “Combinatory effect with gentamicin” value is “Potentiating” and the “combined effect with gentamicin in inhibiting growth” value was “potentiating activities”. Besides, the “combined effect with gentamicin in inhibiting growth” value in series [8] (listed as compound 17) is reported as “potentiating effect”. Moreover, in series [2], the activity at 5 µM came out at 99%, the activity at 20 µM was 74%, the activity at 50 µM is 43% and the inhibition at 20 µM stood at 91%. In addition, the inhibition at 50 µM in series [2] worked out at 87%. Further, the relative growth result in series [2] ([Cpd] 5 μM, [Genta] 100 ug/ml) is “*0.35”. The relative growth result in series [2] ([Cpd] 5 μM, [Genta] 200 ug/ml) is “*0.1”. Besides, the relative growth entry in series [2] ([Cpd] 20 μM, [Genta] 100 ug/ml) is given as “*0.09”. Further, the relative growth entry in series [2] ([Cpd] 20 μM, [Genta] 200 ug/ml) is reported as “*0.09”. Further, the relative growth result in [2] ([Cpd] 50 μM, [Genta] 100 ug/ml) is listed as “*0.14”. Also, the relative growth entry in series [2] ([Cpd] 50 μM, [Genta] 200 ug/ml) is on record as “*0.13”. For the same compound, in series [4], the “cytotoxicity from Vero cell MTT assays” value is “high cytotoxicity” and the Cytotoxicity result is reported as “High”.

Regarding `O=C(O)CN1C(=O)/C(=C/c2cccc(OCc3ccccc3Cl)c2)SC1=S` [Compound 19], in series [8], the “Combinatory effect with gentamicin” value is recorded as “Potentiating” and the “combined effect with gentamicin in inhibiting growth” value is reported as “promising potentiating effect”. In addition, the “combined effect with gentamicin in inhibiting growth” value in series [8] (listed as compound 19) was “potentiating effect”. Further, in [2], the activity at 5 µM was found to be 99%, the activity at 20 µM is 91%, the activity at 50 µM came out at 76% and the inhibition at 20 µM is 91%. In addition, the inhibition at 50 µM in series [2] came out at 92%. Further, in series [2] ([Cpd] 5 μM, [Genta] 100 ug/ml), the relative growth came out at 0.96. In addition, the relative growth in [2] ([Cpd] 5 μM, [Genta] 200 ug/ml) is 0.83. Moreover, in series [2] ([Cpd] 20 μM, [Genta] 100 ug/ml), the relative growth entry was “*0.1”. Besides, the relative growth entry in series [2] ([Cpd] 20 μM, [Genta] 200 ug/ml) is reported as “*0.09”. The relative growth result in [2] ([Cpd] 50 μM, [Genta] 100 ug/ml) is recorded as “*0.09”. Further, the relative growth result in series [2] ([Cpd] 50 μM, [Genta] 200 ug/ml) is listed as “*0.08”. In series [4], the “cytotoxicity from Vero cell MTT assays” value is “less cytotoxicity” and the Cytotoxicity entry is recorded as “Medium”.

With `CCOc1cc(/C=C2\SC(=S)N(CC(=O)O)C2=O)ccc1OCc1ccc(Cl)cc1` [Compound 20], in series [8], the “Combinatory effect with gentamicin” value is given as “Potentiating” and the “combined effect with gentamicin in inhibiting growth” value was “promising potentiating effect”. The “combined effect with gentamicin in inhibiting growth” value in series [8] (listed as compound 20) is given as “potentiating effect”. Besides, in series [2], the activity at 5 µM came to 101%, the activity at 20 µM stood at 78%, the activity at 50 µM was 91% and the inhibition at 20 µM was 91%. In addition, the inhibition at 50 µM in series [2] was 86%. For the same compound, the relative growth in series [2] ([Cpd] 5 μM, [Genta] 100 ug/ml) turned out to be 0.96. In series [2] ([Cpd] 5 μM, [Genta] 200 ug/ml), the relative growth is reported as 0.88. Besides, the relative growth result in series [2] ([Cpd] 20 μM, [Genta] 100 ug/ml) is listed as “*0.14”. In series [2] ([Cpd] 20 μM, [Genta] 200 ug/ml), the relative growth entry was “*0.09”. Further, in [2] ([Cpd] 50 μM, [Genta] 100 ug/ml), the relative growth entry is reported as “*0.17”. Moreover, the relative growth result in [2] ([Cpd] 50 μM, [Genta] 200 ug/ml) is “*0.14”. Moreover, in series [4], the “cytotoxicity from Vero cell MTT assays” value is reported as “less cytotoxicity” and the Cytotoxicity result is on record as “Medium/Low”.

Consider `CCCOc1ccc(/C=C2\SC(=S)N(CC(=O)O)C2=O)cc1` [Compound 48], for which, in series [1], the “repression” value is recorded as “significant repression”. In [2], the activity at 5 µM worked out at 98%. In addition, the activity at 20 µM in [2] was found to be 95%. The activity at 50 µM in series [2] turned out to be 87%. Also, the inhibition at 20 µM in series [2] worked out at 36%. The inhibition at 50 µM in series [2] amounted to 69%. Besides, the relative growth in series [2] ([Cpd] 5 μM, [Genta] 100 ug/ml) was 0.97; in series [2] ([Cpd] 5 μM, [Genta] 200 ug/ml), 0.96; in series [2] ([Cpd] 20 μM, [Genta] 100 ug/ml) it was 0.97; in series [2] ([Cpd] 20 μM, [Genta] 200 ug/ml), 0.64; in [2] ([Cpd] 50 μM, [Genta] 100 ug/ml), 0.8; in [2] ([Cpd] 50 μM, [Genta] 200 ug/ml), “*0.31”.

Take `O=C(O)CN1C(=O)/C(=C/c2cccc(OCc3ccccc3F)c2)SC1=S` [Compound 63]: in [2], the activity at 5 µM was determined as 97%. Further, the activity at 20 µM in series [2] amounted to 93%. The activity at 50 µM in series [2] came out at 84%. Also, the inhibition at 20 µM in [2] turned out to be 65%. The inhibition at 50 µM in [2] was determined as 92%. For the same compound, the relative growth in series [2] ([Cpd] 5 μM, [Genta] 100 ug/ml) is 0.97; in series [2] ([Cpd] 5 μM, [Genta] 200 ug/ml), 0.88; in series [2] ([Cpd] 20 μM, [Genta] 100 ug/ml) it was 0.67; in series [2] ([Cpd] 20 μM, [Genta] 200 ug/ml), “*0.35”; in series [2] ([Cpd] 50 μM, [Genta] 100 ug/ml), “*0.11”; in series [2] ([Cpd] 50 μM, [Genta] 200 ug/ml), “*0.08”.

As for `COC(=O)CN1C(=O)C(=Cc2ccc(OCc3ccccc3)cc2)SC1=S` [Compound 69], in [2] (20 μM compound + 200 μg/ml gentamicin, S. aureus Mu3), the “20 μM + 200 μg/ml Gentamicin Growth inhibition Percentage” value is on record as 89%. In addition, the “50 μM + 200 μg/ml Gentamicin Growth inhibition Percentage” value in [2] (50 μM compound + 200 μg/ml gentamicin, S. aureus Mu3) was 77%. Also, the relative growth in series [2] ([Cpd] 5 μM, BHI only (no gentamicin)) is given as 0.97; in series [2] ([Cpd] 5 μM, [Genta] 100 ug/ml), 0.97; in series [2] ([Cpd] 5 μM, [Genta] 200 ug/ml), 0.98; in series [2] ([Cpd] 20 μM, BHI only (no gentamicin)), 1.02; in series [2] ([Cpd] 20 μM, [Genta] 100 ug/ml) it was 0.56; in series [2] ([Cpd] 20 μM, [Genta] 200 ug/ml) it was “*0.11”. Also, the relative growth is recorded as 0.55 in [2] ([Cpd] 50 μM, BHI only (no gentamicin)); “*0.27” in [2] ([Cpd] 50 μM, [Genta] 100 ug/ml); “*0.23” in [2] ([Cpd] 50 μM, [Genta] 200 ug/ml).

Regarding `COc1ccc(/C=C2/SC(=S)N(CCC(N)=O)C2=O)cc1` [Compound 87], the “repression” value in series [1] is given as “hla promoter lux repression”. In series [5], the Relative lux signal is 0.2657. Further, the minimum inhibitory concentration (MIC) in series [6] was determined as 500 µM.

With Gentamicin, the “MIC value against MRSA Mu3” value in series [9] was determined as 1000 µg/mL.

The values above are taken from patent US20190307729A1, “ANTIMICROBIAL COMPOUNDS AND METHODS FOR USE THEREOF” (VERSITECH LIMITED, priority 2016, published 2019).
